Where no end group is shown, it is not given here.
Legend:
[1] = target: T1, rat TGR23-1 expressing CHO cells (Rattus norvegicus, UniProt P0C0L6, DEL160-160); experiment: Intracellular Ca ion concentration increasing activity using FLIPR; type: cell-based
T1 construct: The rat TGR23-1 expressing vector was constructed by digestion of plasmid pCR2.1-rTGR23-1 with Sal I and Spe I; expressed in transfected cells; host or cells: CHO dhfr- cells, pAKKO-rTGR23-1, clone No. 34
T1 sequence (P0C0L6 with tags, fused parts or gaps DEL160-160): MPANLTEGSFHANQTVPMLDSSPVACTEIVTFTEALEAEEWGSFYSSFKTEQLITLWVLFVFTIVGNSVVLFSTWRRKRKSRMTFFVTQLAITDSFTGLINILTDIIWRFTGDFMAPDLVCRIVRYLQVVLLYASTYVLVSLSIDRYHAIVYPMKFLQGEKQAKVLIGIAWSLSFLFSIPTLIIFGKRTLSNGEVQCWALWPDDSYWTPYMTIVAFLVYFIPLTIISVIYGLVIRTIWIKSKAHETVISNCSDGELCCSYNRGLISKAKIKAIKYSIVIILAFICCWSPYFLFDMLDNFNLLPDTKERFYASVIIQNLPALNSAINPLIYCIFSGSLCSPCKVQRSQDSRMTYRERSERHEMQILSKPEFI
Experimental: (§1) An enhancing activity of intracellular Ca^2+ release was assayed using FLIPR (Molecular Devices, Inc.). The CHO/TGR23-2 cells prepared in Example 1 and selected in Example 2 were plated on 96-well plate at 3×10^4 cells/well and cultured for 24 hours. A loading buffer was prepared by adding 1 vial of Fluo 3-AM to 10 ml of Hanks' solution (pH7.4) containing 2.5 mM Probenecid and 20 mM HEPES (hereafter, Hanks' solution (pH7.4) containing 2.5 mM Probenecid and 20 mM HEPES may be referred to as a washing buffer). The culture medium was discarded from the culture plate and 100 μl/well of the loading buffer were added to the cells. Then, the cells were incubated for 60 minutes in the incubator. After the loading buffer was removed from the culture plate and the cells were washed with the washing buffer, the plate was put in place of FLIPR. A sample was prepared by adding a sample buffer, which 2 mg/ml BSA and 1 mg/ml CHAPS were added to the washing buffer, to lyophilized product, stirring and treating by ultrasonication for 30 minutes, and transferred to 96-well sample plate. This sample plate was also put in place for assay. The enhancing activity of intracellular Ca^2+ release was measured as an increase of fluorescent intensity, which is raised by addition of the sample.
(§2) The rat TGR23-2 ligand (1-18) having various concentrations was administered in accordance with the method described in Example 5, to the CHO cells, in which rat TGR23-1 and rat TGR23-5 are expressed. Subsequently, the intracellular Ca ion concentration increasing activity was measured using FLIPR.

[2] = target: T2, rat TGR23-5 expressing CHO cells (Rattus norvegicus, UniProt P0C0L6); experiment: as above; type: cell-based
T2 construct: expressed in transfected cells; host or cells: CHO dhfr- cells, pAKKO-rTGR23-5, clone No. 29
T2 sequence (P0C0L6 1-372): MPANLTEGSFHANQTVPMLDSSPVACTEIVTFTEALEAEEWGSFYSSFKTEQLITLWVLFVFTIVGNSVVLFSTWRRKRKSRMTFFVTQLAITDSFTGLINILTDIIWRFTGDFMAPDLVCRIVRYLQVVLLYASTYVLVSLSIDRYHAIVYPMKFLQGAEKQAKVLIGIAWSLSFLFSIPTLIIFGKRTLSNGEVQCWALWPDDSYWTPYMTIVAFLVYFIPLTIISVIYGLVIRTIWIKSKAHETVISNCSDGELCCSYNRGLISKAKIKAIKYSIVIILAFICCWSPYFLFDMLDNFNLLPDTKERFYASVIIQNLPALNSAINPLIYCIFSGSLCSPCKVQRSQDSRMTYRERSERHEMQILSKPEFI
Experimental: as §1, §2

[3] = Feeding level after administration into rat lateral ventricle; type: in vivo, Wistar rats; conditions: 10 nmol/rat, at 1.5 hours and two hours after administration, vs distilled water group, p<0.05
Experimental: Effects on the feeding level by administration of the human TGR23-2 ligand (1-20) into rat lateral ventricle were studied.
Rats were bred for lightning hours from eight to twenty o'clock at 25° C. Male Wistar rats at eight weeks old (260 through 280 g of weight at the time of operation) were anesthetized with 50 mg/kg of pentobarbital, i.p., and each rat was immobilized in a rat brain stereotaxic apparatus. The incisor bar was set 3.3 mm lower from the interaural line. The skull was exposed, and using a dental drill a hole was made on the bone for implantation of a guide cannula AG-8 (0.4 mm inner diameter, 0.5 mm outer diameter, EICOM Co., Ltd.). In addition, three anchor screws were buried around the hole. A stainless-steel guide cannula, AG-8 was inserted in such a manner that its tip would be situated in the upper part of the lateral ventricle. Following the atlas of Paxinos and Watson (1986), the stereotaxic coordinates were set to AP: −0.8 mm, L: 1.5 mm, and H: −4.5 mm from the bregma. The guide cannula was secured to the skull using an instant adhesive, dental cement and anchor screws. […]
For about one week after embedding of guide cannula, rats were bred to be postoperatively recuperative and be naturalized to powder feed. […] Feeding level after infusion was measured with time using Feed-Scale (Columbus) every 30 minutes until four hours after administration.

| Sequence | intracellular Ca ion concentration increasing activity ([1]; rat TGR23-1 expressing CHO cells) | EC50 ([1]; rat TGR23-1 expressing cells, calculated from graph FIG. 27) [nM] | intracellular Ca ion concentration increasing activity ([2]; rat TGR23-5 expressing CHO cells) | EC50 ([2]; rat TGR23-5 expressing cells, calculated from graph FIG. 28) [nM] | feeding level [3] |
| --- | --- | --- | --- | --- | --- |
| SFRNGVGSGVKKTSFRRA [rat TGR23-2 ligand (1-18), Ser-Phe-Arg-Asn-Gly-Val-Gly-Ser-Gly-Val-Lys-Lys-Thr-Ser-Phe-Arg-Arg-Ala] | the intracellular Ca ion level increased depending on the concentration of this ligand | 0.19 | the intracellular Ca ion level increased depending on the concentration of this ligand | 14 | – |
| SFRNGVGTGMKKTSFQRAKS [human TGR23-2 ligand (1-20)] | – | – | – | – | significant decrease of feeding level |

Source: patent US7323541B2, “Polypeptide DNA thereof and use of the same” (Takeda Pharmaceutical Company Limited, priority 2001, dated 2008)
